Source: US5780498A, “Endothelin receptor antagonists” (Ciba-Geigy Japan Limited, priority 1993, dated 1998)

Legend:
[1] = target: T1, guinea pig trachea (Cavia porcellus, UniProt H0VTF3); test: Contraction of guinea pig trachea (inhibition of ET-3 induced contraction); conditions: ET-3 contraction; Krebs-Henseleit solution; 60 mM KCl reference standard; read-out: pA2 (converted)
T1 construct: The trachea which is isolated from male Hartley guinea pigs; from tissue; host or cells: guinea pig (Hartley) tracheal rings, epithelium removed
T1 sequence (H0VTF3 27-415): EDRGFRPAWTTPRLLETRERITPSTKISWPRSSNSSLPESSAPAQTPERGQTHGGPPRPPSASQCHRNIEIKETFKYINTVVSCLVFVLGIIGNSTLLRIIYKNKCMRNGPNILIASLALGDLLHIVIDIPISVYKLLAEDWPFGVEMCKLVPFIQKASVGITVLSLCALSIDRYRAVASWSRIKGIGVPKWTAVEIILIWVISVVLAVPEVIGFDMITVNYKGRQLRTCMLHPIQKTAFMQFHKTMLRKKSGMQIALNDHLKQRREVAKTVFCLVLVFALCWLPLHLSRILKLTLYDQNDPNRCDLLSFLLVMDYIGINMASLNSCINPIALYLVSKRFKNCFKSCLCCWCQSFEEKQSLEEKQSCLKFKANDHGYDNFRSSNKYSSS
Experimental: Contraction assays are performed basically according to the published method (M. Takai et al. Biochem. Biophys. Res. Commun. 184, 953-959, 1992). The trachea which is isolated from male Hartley guinea pigs weighing 350-500 g, is cut into rings of approximately 2 mm length after removal of the adherent fat and connective tissues. The epithelium is removed mechanically from the rings. The preparations are placed in organ baths containing a Krebs-Henseleit or Tyrode solution at 37° C., pH 7.4 bubbled with 95% O2 and 5% CO2. Tension is measured isometrically via a force-displacement transducer (Nikhon Kohden, Tokyo, TB-612T) under an initial tension of 1 g. Concentration-response curves for ET-3 are obtained by its cumulative application. Inhibitory activities of given compounds are investigated by the addition of their DMSO solutions into the baths 10 to 40 min before the addition of ET-3. These activities are evaluated numerically by pA2 values which are negative logarithms of compound concentrations inducing a shift of the ET-3 concentration-effective curves toward the 2-fold higher concentration range of ET-3. Contraction produced by 60 mM KCl or 10 μM carbachol is used as a reference standard.

[2] = target: T2, ETA receptor (Sus scrofa, UniProt Q29010); test: Endothelin (ET) receptor binding assay, ETA ([125I]ET-1 in the presence of 1 nM nonlabeled ET-3, porcine lung plasma membrane); conditions: for inhibition at 10 µM: 10^-5 M of the test compound, specific ETA binding; for Ki: from inhibition curves for the binding of [125I]ETs
T2 construct: The plasma membrane of porcine lung; from tissue; host or cells: porcine lung plasma membrane
T2 sequence (Q29010 21-427): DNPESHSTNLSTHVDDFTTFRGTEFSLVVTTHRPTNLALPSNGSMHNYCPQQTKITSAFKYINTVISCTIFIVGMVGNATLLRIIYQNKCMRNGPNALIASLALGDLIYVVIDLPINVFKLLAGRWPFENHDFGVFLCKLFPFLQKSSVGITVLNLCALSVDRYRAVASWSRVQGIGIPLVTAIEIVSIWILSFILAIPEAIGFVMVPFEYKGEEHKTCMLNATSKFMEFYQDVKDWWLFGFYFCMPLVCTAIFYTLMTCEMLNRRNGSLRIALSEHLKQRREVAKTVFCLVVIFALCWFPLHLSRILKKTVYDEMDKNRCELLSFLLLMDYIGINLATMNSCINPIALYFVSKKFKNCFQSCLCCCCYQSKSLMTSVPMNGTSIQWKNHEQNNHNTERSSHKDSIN
Experimental: (§1) Nonspecific binding is defined as membrane-associated radioactivity in the presence of saturating concentrations of ETs (100 nM). Nonspecific binding is subtracted from the total binding and the difference is defined as specific binding.

[3] = target: T3, ETB receptor (Sus scrofa, UniProt P35463); test: Endothelin (ET) receptor binding assay, ETB ([125I]ET-3 alone, porcine lung plasma membrane); conditions: for inhibition at 0.1 µM: 10^-7 M of the test compound, specific ETB binding; for Ki: from inhibition curves for the binding of [125I]ETs
T3 construct: The plasma membrane of porcine lung; from tissue; host or cells: porcine lung plasma membrane
T3 sequence (P35463 27-443): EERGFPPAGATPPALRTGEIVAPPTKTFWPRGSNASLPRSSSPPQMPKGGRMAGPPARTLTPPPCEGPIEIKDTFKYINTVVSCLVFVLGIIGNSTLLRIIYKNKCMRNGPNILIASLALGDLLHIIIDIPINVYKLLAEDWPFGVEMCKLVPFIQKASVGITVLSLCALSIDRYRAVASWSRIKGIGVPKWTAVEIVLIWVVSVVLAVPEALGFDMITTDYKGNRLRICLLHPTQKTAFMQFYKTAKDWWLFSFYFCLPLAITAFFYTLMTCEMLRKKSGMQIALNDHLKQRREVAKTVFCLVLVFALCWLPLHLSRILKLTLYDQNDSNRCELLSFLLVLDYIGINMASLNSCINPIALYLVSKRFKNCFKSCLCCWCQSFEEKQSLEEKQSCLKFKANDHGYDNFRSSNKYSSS
Experimental: as §1

Row | SMILES | Kb [1] [nM] | inhibition at 10 µM [2] [%] | inhibition at 0.1 µM [3] [%] | Ki [2] [nM] | Ki [3] [nM]
1 | Cc1cc(C)cc(C(=O)N(C)[C@H](Cc2ccccc2)C(=O)N[C@@H](Cc2c[nH]c3ccccc23)C(=O)O)c1 [Example 1, N-(3,5-Dimethylbenzoyl)-N-methyl-(D)-phenylalanyl-(L)-tryptophan] | 501 | 37 | 55 | – | –
2 | Cc1cc(C)cc(C(=O)N(C)[C@H](Cc2ccc(-c3ccccc3)cc2)C(=O)N[C@@H](Cc2c[nH]c3ccccc23)c2nn[nH]n2)c1 [Example 4, 5-[N-(3,5-dimethylbenzoyl)-N-methyl-(D)-(4-phenylphenyl)alanyl-(L)-tryptophanyl]-1H-tetrazole] | – | 74 | 93 | – | –
3 | Cc1cc(C)cc(C(=O)N(C)[C@H](Cc2ccc(-c3ccccc3)cc2)C(=O)NC(Cc2csc3ccccc23)C(=O)O)c1 (some centres unmarked) [Example 7] | – | 77 | 87 | – | –
4 | Cc1cc(C)cc(C(=O)N(C)[C@H](Cc2ccc(-c3ccccc3)cc2)C(=O)N(C)[C@@H](Cc2c[nH]c3ccccc23)C(=O)O)c1 [Example 12, N-(3,5-Dimethylbenzoyl)-N-methyl-(D)-(4-phenylphenyl)alanyl-N-methyl-(L)-tryptophan] | – | 36 | 91 | – | –
5 | Cc1cc(C)cc(C(=O)N(C)[C@H](Cc2ccc(-c3ccccc3)cc2)C(=O)N[C@@H](Cc2c[nH]c3ccccc23)C(=O)O)c1 [Example 55, N-(3,5-Dimethylbenzoyl)-N-methyl-(D)-(4-phenylphenyl)alanyl-(L)-tryptophan] | – | 94 | 100 | 440 | 1
6 | Cc1cc(C)cc(C(=O)N(C)C(C(=O)N[C@@H](Cc2c[nH]c3ccccc23)C(=O)O)C(c2ccccc2)c2ccccc2)c1 (some centres unmarked) [Example 57, N-(3,5-dimethylbenzoyl)-N-methyl-(D,L)-3-(diphenyl)alanyl-(L)-tryptophan] | – | 34 | 95 | – | –
7 | COc1ccc(C[C@H](C(=O)N[C@@H](Cc2c[nH]c3ccccc23)C(=O)O)N(C)C(=O)c2cc(C)cc(C)c2)cc1 [Example 65, N-(3,5-dimethylbenzoyl)-N-methyl-O-methyl-(D)-tyrosyl-(L)-tryptophan] | – | 47 | 59 | – | –
8 | Cc1cc(C)cc(C(=O)N(C)[C@H](Cc2ccc(-c3ccccc3)cc2)C(=O)CC(Cc2c[nH]c3ccccc23)C(=O)O)c1 (some centres unmarked) [Example 84] | – | 46 | 70 | – | –
9 | Cc1cc(C)cc(C(=O)N(C)[C@H](Cc2ccc(-c3ccsc3)cc2)C(=O)N[C@@H](Cc2c[nH]c3ccccc23)C(=O)O)c1 [Example 91, N-(3,5-dimethylbenzoyl)-N-methyl-(D)-3-[4-(3-thienyl)phenyl]alanyl-(L)-tryptophan] | – | 100 | 100 | 54 | 0.23
10 | Cc1cc(C)cc(C(=O)N(C)[C@H](Cc2ccc(-c3cccs3)cc2)C(=O)N[C@@H](Cc2c[nH]c3ccccc23)C(=O)O)c1 [Example 93, N-(3,5-dimethylbenzoyl)-N-methyl-(D)-3-[4-(2-thienyl)phenyl]alanyl-(L)-tryptophan] | – | – | – | 87 | 0.6
11 | Cc1cc(C)cc(C(=O)N(C)[C@H](Cc2ccc(-c3ccno3)cc2)C(=O)N[C@@H](Cc2c[nH]c3ccccc23)C(=O)O)c1 [Example 95, N-(3,5-dimethylbenzoyl)-N-methyl-(D)-3-[4-(5-isoxazolyl)phenyl]alanyl-(L)-tryptophan] | – | 98 | 98 | 45 | 0.21
